Assay results reported in publication PMC8230474, “Synthesis of Novel Acyl Derivatives of 3-(4,5,6,7-Tetrabromo-1H-benzimidazol-1-yl)propan-1-ols—Intracellular TBBi-Based CK2 Inhibitors with Proapoptotic Properties” (International Journal of Molecular Sciences, 2021).

Tested on: MCF-7 cells
Assay: Annexin V-FITC/PI flow cytometry, MCF-7
Format: cell-based, human
Details: MCF-7, 72-h treatment, compound at its EC50
Method: Additionally, assaying annexin V-binding to phosphatidylserine by means of flow cytometry confirmed that derivatives 3c and 6a–c induced apoptosis in both cell lines (Figure 9, Figure S3).
MCF-7 cells were seeded in six-well plates at 1.5 × 10^5 cells/well. […] Then, the plates were incubated for 24 h or 72 h. After exposure to the examined compounds, the floating cells were collected, and monolayer cell culture was trypsinized. The cells were centrifugated at 200× g at 4 °C for 5 min, washed twice in cold phosphate-buffered saline (PBS), and subsequently suspended in binding buffer at 1 × 10^6 cells/mL. Subsequently, 100-μL aliquots of the cell suspension were labeled according to the kit manufacturer’s instructions. Briefly, annexin V-fluorescein isothiocyanate and propidium iodide (BD Biosciences, Pharmingen, San Diego, CA, USA) were added to the cell suspension, and the mixture was vortexed and then incubated for 15 min at RT in the dark. A cold binding buffer (900 μL) was then added and the cells were vortexed again and kept on ice. Flow cytometric measurements were performed within 1 h after labeling. Viable, necrotic, early, and late apoptotic cells were detected by flow cytometry using CyFlow Cube 8 (Sysmex, Norderstedt, Germany) flow cytometer.

`CCCCCC(=O)OCCCn1c(C)nc2c(Br)c(Br)c(Br)c(Br)c21` [Compound 6b, (4,5,6,7-Tetrabromo-2-methyl-1H-benzimidazol-1-yl)propyl hexanoate] was tested, and the “apoptotic cells (early and late apoptosis)” value was 57.5%.
